Results reported in the supplement of paper PMC10307832.

What was measured:
Assay in all cases: relative viability (nuclei count vs DMSO), 5 days (fraction); higher = more cells survive
R406 + Olaparib = compound: COc1cc(Nc2ncc(F)c(Nc3ccc4c(n3)NC(=O)C(C)(C)O4)n2)cc(OC)c1OC [R406] + O=C(c1cc(Cc2n[nH]c(=O)c3ccccc23)ccc1F)N1CCN(C(=O)C2CC2)CC1 [Olaparib] (partner 8 µM)
Procedure, shortened: (§1)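 Lung cancer cell lines were pin-tool dosed in 1536-well plates on the day after seeding, with either a lone drug or a fixed anchor-drug dose plus five library-drug doses (not always all listed) in √10 steps. Nuclei were counted on 4× images after 5 days. Relative viability is the ratio of treated-well to vehicle-well nuclei counts, with each value a median of duplicate plates.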

Daporinad + Trametinib = compound: O=C(/C=C/c1cccnc1)NCCCCC1CCN(C(=O)c2ccccc2)CC1 [Daporinad] + CC(=O)Nc1cccc(-n2c(=O)n(C3CC3)c(=O)c3c(Nc4ccc(I)cc4F)n(C)c(=O)c(C)c32)c1 [Trametinib] (partner 0.02 µM)
Procedure, shortened: as §1

Daporinad + OSI-027 = compound: O=C(/C=C/c1cccnc1)NCCCCC1CCN(C(=O)c2ccccc2)CC1 [Daporinad] + COc1cccc2cc(-c3nc([C@H]4CC[C@H](C(=O)O)CC4)n4ncnc(N)c34)[nH]c12 [OSI-027] (partner 0.5 µM)
Procedure, shortened: as §1

Daporinad + Crizotinib = compound: O=C(/C=C/c1cccnc1)NCCCCC1CCN(C(=O)c2ccccc2)CC1 [Daporinad] + C[C@@H](Oc1cc(-c2cnn(C3CCNCC3)c2)cnc1N)c1c(Cl)ccc(F)c1Cl [Crizotinib] (partner 1 µM)
Procedure, shortened: as §1

Row | Cell Line | relative viability (R406 + Olaparib; first compound 0.08 µM) | relative viability (R406 + Olaparib; first compound 0.253 µM) | relative viability (R406 + Olaparib; first compound 0.8 µM) | relative viability (R406 + Olaparib; first compound 2.53 µM) | relative viability (R406 + Olaparib; first compound 8 µM) | relative viability (Daporinad + Trametinib; first compound 0.0005 µM) | relative viability (Daporinad + Trametinib; first compound 0.001581 µM) | relative viability (Daporinad + Trametinib; first compound 0.005 µM) | relative viability (Daporinad + Trametinib; first compound 0.01581 µM) | relative viability (Daporinad + OSI-027; first compound 0.0005 µM) | relative viability (Daporinad + OSI-027; first compound 0.001581 µM) | relative viability (Daporinad + OSI-027; first compound 0.005 µM) | relative viability (Daporinad + OSI-027; first compound 0.01581 µM) | relative viability (Daporinad + Crizotinib; first compound 0.0005 µM) | relative viability (Daporinad + Crizotinib; first compound 0.001581 µM) | relative viability (Daporinad + Crizotinib; first compound 0.005 µM) | relative viability (Daporinad + Crizotinib; first compound 0.01581 µM)
1 | NCI-H1355 | 0.675 | 0.8 | 0.82 | 0.569 | 0.374 | 0.409 | 0.465 | 0.298 | 0.557 | 0.375 | 0.433 | 0.471 | 0.548 | 1.08 | 1.1 | 1.22 | 1.1
2 | NCI-H1437 | 0.611 | 0.622 | 0.647 | 0.546 | 0.431 | 0.444 | 0.544 | 0.551 | 0.518 | 0.851 | 0.885 | 0.885 | 0.882 | 0.795 | 0.956 | 1.02 | 0.855
3 | NCI-H1650 | 0.911 | 0.808 | 0.798 | 0.787 | 0.647 | 0.565 | 0.628 | 0.635 | 0.572 | 0.637 | 0.655 | 0.733 | 0.825 | 1.12 | 1.09 | 1 | 0.764
4 | NCI-H1651 | 0.19 | 0.193 | 0.177 | 0.173 | 0.172 | 0.854 | 0.825 | 0.823 | 0.757 | 0.747 | 0.767 | 0.744 | 0.604 | 0.881 | 0.875 | 0.825 | 0.807
5 | NCI-H1666 | 0.74 | 0.797 | 0.725 | 0.824 | 0.687 | 0.692 | 0.843 | 0.821 | 0.9 | 0.822 | 0.989 | 0.826 | 0.896 | 1.25 | 1.06 | 1.03 | 0.97
6 | NCI-H1734 | 0.641 | 0.654 | 0.688 | 0.542 | 0.417 | 0.725 | 0.764 | 0.724 | 0.491 | 0.569 | 0.676 | 0.674 | 0.527 | 0.713 | 0.715 | 0.737 | 0.464
7 | NCI-H1755 | 0.801 | 0.88 | 0.869 | 0.792 | 0.502 | 0.751 | 0.761 | 0.779 | 0.768 | 0.628 | 0.758 | 0.761 | 0.778 | 0.83 | 0.859 | 0.919 | 0.843
8 | NCI-H1792 | 0.456 | 0.402 | 0.491 | 0.189 | 0.194 | 0.412 | 0.471 | 0.421 | 0.453 | 0.668 | 0.655 | 0.541 | 0.893 | 0.916 | 1.01 | 0.844 | 0.976
9 | NCI-H1915 | 0.286 | 0.267 | 0.263 | 0.237 | 0.237 | 0.28 | 0.309 | 0.284 | 0.368 | 0.613 | 0.641 | 0.719 | 0.712 | 0.911 | 0.933 | 0.982 | 0.915
